Results on eight compounds are retold here after ChEMBL document CHEMBL1152061, “New cytostatic agents obtained by molecular topology” (Bioorg Med Chem Lett, 1996).

Experiment [1] is described as follows: Cytotoxicity ratio for Human hepatocellular carcinoma, HepG2 (ATCC HB 8065) cells. It counts as functional.
In experiment [2] the test system is HepG2. Description: Compound was evaluated for the inhibition of cell proliferation of human hepatocellular carcinoma, HepG2 (ATCC HB8065). The class given is functional, cell-based.
In experiment [3] the test system is HepG2. Description: Compound was evaluated for the cytotoxicity against human hepatocellular carcinoma, HepG2 (ATCC HB8065). The class given is functional.
Experiment [4] has as its system HeLa. Put plainly: Compound was evaluated for the cytotoxicity against human cervix epithelioid carcinoma, HeLa (ATCC CCL2). It counts as functional.
The nature of experiment [5]: Compound was evaluated for the inhibition of cell proliferation of human ocular lens epithelium (CECH). The class given is functional, tissue-based. The note with it: Lens of camera-type eye.
Experiment [6] can be described thus: Compound was evaluated for the cytotoxicity against human ocular lens epithelium (CECH). It counts as functional, Lens of camera-type eye.
The test system of experiment [7] is HeLa. Put plainly: Compound was evaluated for the inhibition of cell proliferation of human cervix epithelioid carcinoma, HeLa (ATCC CCL2). It counts as functional, cell-based.
Experiment [8] has as its system HeLa. Description: Compound was evaluated for the cytotoxicity against human cervix epithelioid carcinoma, HeLa (ATCC CCL2). The class given is functional.

In the case of `O=c1[nH]cc(F)c(=O)[nH]1` [FLUOROURACIL], the Ratio in experiment [1] is given as 0.09. Further, the 50% inhibitory concentration (IC50) (commonly the midpoint of a concentration-inhibition curve) in the experiment on HepG2 [2] turned out to be 85 µM; in experiment [5], 8 µM. Also, the figures for the MNTC with HepG2 [3] and with HeLa [4] were 100 µM and 40 µM, respectively.
In the case of `CCn1cc(C(=O)O)c(=O)c2cnc(N3CCCC3)nc21` [PIROMIDIC ACID], the MNTC in experiment [6] worked out at 250 µM; in the experiment on HepG2 [3], 120 µM; in the experiment on HeLa [4], 100 µM. Besides, the Ratio in experiment [1] turned out to be 1.67. The results for the IC50 (with HepG2 [2]; with HeLa [7]; in experiment [5]) were 110 µM, 97 µM and 184 µM, respectively.
As for `CO[C@@]12[C@H](COC(N)=O)C3=C(C(=O)C(C)=C(N)C3=O)N1C[C@@H]1N[C@@H]12` [MITOMYCIN], in experiment [1], the Ratio was determined as 0.33. Further, the IC50 is 0.27 µM with HepG2 [2] and 0.09 µM in experiment [5]. Further, the MNTC with HepG2 [3] is 0.7 µM; in the experiment on HeLa [4], 2 µM.
Take `CNC(C)C1CCC(N)C(OC2C(N)CC(N)C(OC3OCC(C)(O)C(NC)C3O)C2O)O1.CNC1C(O)C(OC2C(N)CC(N)C(OC3OC(C(C)N)CCC3N)C2O)OCC1(C)O.CNC1C(O)C(OC2C(N)CC(N)C(OC3OC(CN)CCC3N)C2O)OCC1(C)O.O=S(=O)(O)O` (stereo unspecified) [GENTAMICIN MIXTURE]: the MNTC in experiment [6] is 210 µM; in the experiment on HepG2 [3], 210 µM; in the experiment on HeLa [4], more than 1050 µM.
Consider `CN(C)[C@@H]1C(O)=C(C(N)=O)C(=O)[C@@]2(O)C(O)=C3C(=O)c4c(O)cccc4[C@@](C)(O)[C@H]3C[C@@H]12` [TETRACYCLINE], for which the Ratio in experiment [1] is on record as 1.62. In addition, the figures for the half-inhibitory concentration (IC50) (in the experiment on HepG2 [2]; with HeLa [7]; in experiment [5]) were 128 µM, 51 µM and 207 µM, respectively.
As for `CCC[C@@H]1C[C@@H](C(=O)N[C@@H]([C@H]2O[C@H](SC)[C@H](O)[C@@H](O)[C@H]2O)[C@H](C)Cl)N(C)C1` [CLINDAMYCIN], the MNTC in experiment [6] is 1000 µM; in the experiment with HepG2 [3], more than 5000 µM; in the experiment with HeLa [8], 1000 µM.
For `C[C@H]1c2cccc(O)c2C(=O)C2=C(O)[C@]3(O)C(=O)C(C(N)=O)=C(O)[C@@H](N(C)C)[C@@H]3[C@@H](O)[C@@H]21.O` [DOXYCYCLINE], the results for the MNTC (in experiment [6]; with HepG2 [3]; in the experiment with HeLa [4]) were 60 µM, 60 µM and 40 µM, respectively. The Ratio in experiment [1] is listed as 0.66. Besides, the half-maximal inhibitory concentration (IC50) was determined as 53 µM in the experiment with HepG2 [2], 30 µM in the experiment on HeLa [7] and 35 µM in experiment [5].
Take `Cc1c(C(=O)O)c(O)cc2c1C(=O)c1c(O)c([C@@H]3O[C@H](CO)[C@@H](O)[C@H](O)[C@H]3O)c(O)c(O)c1C2=O` [CARMINIC ACID]: the MNTC was 2200 µM in experiment [6], 2500 µM in the experiment with HepG2 [3] and more than 5000 µM with HeLa [4]. In experiment [1], the Ratio stood at 0.93. The IC50 with HepG2 [2] was determined as 1770 µM; in the experiment on HeLa [7], 3730 µM; in experiment [5], 1650 µM.
